Results as given in US6369081B1, “Muscarinic receptor agonists” (The University of Toledo, priority 1999, dated 2002).

Legend:
M2 receptors = biological target: T1, M2 receptors (Homo sapiens, UniProt P08172); experiment: Receptor binding at M2 receptors expressed in A9 L cells (high and low affinity sites); conditions: share of high affinity sites
T1 construct: expressed in transfected cells; host or cells: A9 L cells
T1 sequence (P08172 1-466): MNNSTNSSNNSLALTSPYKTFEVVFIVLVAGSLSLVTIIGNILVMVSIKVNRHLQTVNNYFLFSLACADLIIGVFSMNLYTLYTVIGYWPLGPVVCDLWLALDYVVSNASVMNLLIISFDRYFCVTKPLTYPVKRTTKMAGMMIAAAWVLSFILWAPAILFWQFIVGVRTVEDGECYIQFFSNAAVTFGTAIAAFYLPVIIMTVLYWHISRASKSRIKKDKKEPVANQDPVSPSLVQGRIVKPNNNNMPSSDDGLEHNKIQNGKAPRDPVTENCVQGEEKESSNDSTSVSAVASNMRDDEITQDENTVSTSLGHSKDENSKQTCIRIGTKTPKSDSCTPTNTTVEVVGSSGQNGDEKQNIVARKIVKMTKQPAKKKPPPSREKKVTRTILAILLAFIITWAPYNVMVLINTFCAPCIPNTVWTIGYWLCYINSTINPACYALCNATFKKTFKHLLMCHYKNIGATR

[1] = biological target: T2, M1 muscarinic receptors expressed in A9 L cells (Homo sapiens, UniProt P11229); conditions: mean ± s.e.m.; for PI metabolism Smax: maximal stimulation from full dose-response curves; for PI metabolism (at 100 μM): percentage stimulation above basal levels at 100 μM relative to the carbachol response (100%), two to five assays; for EC50: read-out: PI metabolism EC50, full dose-response curves
T2 sequence (P11229 1-460): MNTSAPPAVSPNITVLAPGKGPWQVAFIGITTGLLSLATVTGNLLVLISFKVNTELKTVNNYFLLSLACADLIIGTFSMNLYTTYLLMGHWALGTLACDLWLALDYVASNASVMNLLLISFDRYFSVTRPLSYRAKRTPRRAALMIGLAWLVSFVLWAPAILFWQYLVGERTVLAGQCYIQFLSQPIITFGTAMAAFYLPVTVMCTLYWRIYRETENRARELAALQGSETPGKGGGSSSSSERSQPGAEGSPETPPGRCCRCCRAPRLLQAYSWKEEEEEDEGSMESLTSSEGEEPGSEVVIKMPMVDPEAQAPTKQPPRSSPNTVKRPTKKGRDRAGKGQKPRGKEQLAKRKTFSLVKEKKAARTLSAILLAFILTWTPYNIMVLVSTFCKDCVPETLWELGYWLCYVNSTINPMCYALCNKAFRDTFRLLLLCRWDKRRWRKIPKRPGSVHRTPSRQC
Source text: (§1) Full dose-response curves were obtained for a few compounds.

M1 muscarinic receptors = biological target: T3, M1 muscarinic receptors (Homo sapiens, UniProt P11229); conditions: read-out: M1 Receptors Ki; M1 receptors expressed in A9 L cells
T3 sequence (P11229 1-460): T2 sequence (P11229 1-460)
Source text: as §1

| SMILES | M2 Receptors % High affinity (M2 receptors) [%] | PI metabolism Smax [1] [%] | PI metabolism (at 100 μM) [1] [%] | EC50 [1] [nM] | Ki (M1 muscarinic receptors) [nM] |
| --- | --- | --- | --- | --- | --- |
| CCCCCCOc1nsnc1C1=CCCN(C)C1 [Xanomeline] | 26 ± 8.5 |  |  |  |  |
| CN1CCC=C(c2nsnc2OCCCCCCCCCOc2nsnc2C2=CCCN(C)C2)C1 [(CH2)9] |  | 140 ± 34 | 27 ± 6.2 | 720 ± 370 |  |
| CN1CCC=C(c2nsnc2OCCCCCCOc2nsnc2C2=CCCN(C)C2)C1 [(CH2)6] |  |  | 18 ± 0.06 |  | 0.61 ± 0.18 |
| CN1CCC=C(c2nsnc2OCCCCCCCCOc2nsnc2C2=CCCN(C)C2)C1 [(CH2)8] |  |  | 8.2 ± 1.4 |  | 0.19 ± 0.04 |
| CN1CCC=C(c2nsnc2OCCOCCOCCOCCOc2nsnc2C2=CCCN(C)C2)C1 [(CH2)4O3, 2, 2′-bis-{[3-(1-methyl-1,2,5,6-tetrahydropyrid-3-yl)-1,2,5-thiadiazol-4-yloxy]ethyloxy}-diethylether] |  | 250 ± 36 |  | 8.5 ± 1.2 | 0.12 ± 0.057 |
| CN1CCC=C(c2nsnc2OCCCCCCCCCCCCOc2nsnc2C2=CCCN(C)C2)C1 [(CH2)12, 1, 12-bis-[3-(1-methyl-1,2,5,6-tetrahydropyrid-3-yl)-1,2,5-thiadiazol-4-yloxy]-dodecane] |  | 190 ± 61 | 84 ± 9.9 | 340 ± 190 |  |
| CN1CCC=C(c2nsnc2OCCCCCCCCCCOc2nsnc2C2=CCCN(C)C2)C1 [(CH2)10] |  |  | 76 ± 11 |  |  |
